# Ends that are not written are not given here.
# Assays:
# FN-6789 = target: T1, FN-6789 (Homo sapiens, UniProt P02751); assay: ELISA specificity: binding of Trx-cystine-knot miniproteins to off-target FN-6789 and control proteins; conditions: for off-target and control protein signals: 200 nM Trx-fusion, FN-6789, milk powder, streptavidin, bovine serum albumin
# T1 construct: type III domains 6-9 without EDB (FN-6789); made in house; host or cells: E. coli BL21 (DE3), pET-21a
# Experimental: FIG. 4: Specificity analysis of Trx-cystine-knot miniprotein clones MCopt 1.0-1/-2/-3 and MCopt 2.0-1/-2/-3. 200 nM of each variant were applied to immobilized FN-B and FN-67B89 target proteins as well as to control proteins FN-6789, milk powder and bovine serum albumin (coated at 1 μg/well). An HRP-conjugated anti-s-tag antibody was used to analyze binding. ELISA was performed in duplicates with Trx-MC-Myc-010 serving as negative control.
# FIG. 5: Extended specificity analysis of Trx-cystine-knot miniprotein clones MCopt 1.0-2/-3 and MCopt 2.0-1/-2/3. In total 200 nM of each variant were applied to FN-B, T7-TEV-B, FN-67B89 and FN-B(8-14) target proteins as well as negative controls FN-6789, milk powder, bovine serum albumin, lysozyme, ovalbumin and aldolase (coated at 1 μg/well). ELISA was performed in duplicates, error bars represent standard deviation and Trx-MC-Myc-010 served as negative cystine-knot miniprotein control.
# FIG. 6: Saturation-binding curves of MCopt 1.0-2/-3 and MCopt 2.0-1/-2/-3 EDB binding. Trx-cystine-knot miniprotein binding was assayed against FN-B, FN-67B89 and FN-B(8-14) targets as well as against FN-6789 control protein (coated at 1 μg/well) in ten different concentrations. Binding of Trx-cystine-knot miniproteins was detected with an HRP-conjugated anti-s-tag-antibody. ELISAs were performed in duplicates (single values for FN-B(8-14)). A: from top to bottom SEQ ID NOs: 7, 8, and 12; and B: from top to bottom SEQ ID NOs: 11, 8, and 29.
# FIG. 9: A: Specificity analysis of Trx-MC-FN-010 to human FN-67B89 and FN-6789 using ELISA. B: Specificity analysis of Trx-MC-FN-016 to human FN-67B89 and FN-6789 using ELISA. Binding of Trx-MC-FN-010 and Trx-MC-FN-016 to FN-67B89 with concentrations ranging from 1.56-50 nM in comparison to FN-6789 was detected with 50 ng of HRP-conjugated anti-S-tag-antibody. ELISA was performed in duplicates using 1 μg coated FN-67B89 or FN-6789 per well.
# ELISA was used as technique to analyze protein-protein interactions. Cavities of 96-well microtiter plates (Nunc MaxiSorp™, Thermo Fisher Scientific) were coated with 1 μg FN-B, bovine serum albumin (BSA, Eurobio), milk powder, streptavidin (Sigma Aldrich), T7-His-TEV-B (LD BioPharma), FN-B(8-14) (R&D Systems), lysozyme, ovalbumin (GE Healthcare Life Science), aldolase (GE Healthcare Life Science) or 0.6 μg anti-c-myc-antibody (M4439, Sigma) overnight at 4° C. The wells were washed three times with PBS-T (1×PBS with 0.1% (w/v) Tween-20), blocked with 1× Casein buffer (Sigma Aldrich) diluted in PBS for 2 h at RT and washed again as described. 20 μL of supernatant containing the respective heat-purified fusion protein was added to 80 μL PBS-T or 200 nM of MC-Myc-010 fusion protein (wells with anti-c-myc-antibody) diluted in PBS-T, applied to the cavities and incubated for 1 h at 4° C. After three times of washing with PBS-T, binding of the respective variant was detected with a horseradish peroxidase (HRP)-conjugated anti-S-tag antibody (ab18589 or ab19324, Abcam). Enzymatic reaction was measured with TMB as a chromogenic substrate and stopped with 0.2 M HCl after approximately 5 min. The measurement of absorbance at 450 nm was performed using an Infinite M200 PRO Microplate Reader (Tecan).
# U-87 MG tumor tissues = assay: Immunofluorescence staining of U-87 MG xenograft tumor sections; type: binding, human; conditions: biotinylated miniprotein tetramerized with Cy3-labeled streptavidin; CD31 co-staining
# Experimental: FIG. 8: Specific binding of MC-FN-010 to glioblastoma xenograft tumor sections. Representative results of immunofluorescence staining of U-87 MG tumor tissues with EDB ligand MC-FN-010 and negative control MC-FN-0115. The tissue sections (5 μm) were stained with tetramerized cystine-knot miniprotein-biotin strepatividin-Cy3 complex (red) and with an anti-CD31 antibody to visualize vasculature (green). Scale bars indicate 100 μm.
# FIG. 13: Specific binding of MC-FN-010 to tissue sections derived from the human U-87 MG glioblastoma cell line grown as mouse xenograft tumor. […] Tissue sections (6 μm) were stained with Alexa Fluor 680 conjugated trimeric cystine-knot miniproteins and an anti-CD31 antibody detected with a secondary antibody to visualize vasculature. […]
# (§1) For immunofluorescence staining cryopreserved tumor or brain pieces were cut in five micron thick sections, fixed in ice cold acetone for 5 min and air-dried. […] Images were captured with a Zeiss Apotome microscope (Carl Zeiss) and analyzed with ZEN software (Carl Zeiss).
# (§2) Cryopreserved tumor or brain pieces were cut in six micron thick sections, fixed in l ice cold acetone for 5 min and air-dried. […] CD31 staining of primary anti-mouse CD31 antibody was detected with a secondary anti-rabbit IgG-Cy3 antibody (111-165-003, Jackson ImmunoResearch) diluted 1:400 in PBS with 1% BSA for 30 min at 37° C. […]
# normal mouse brain = assay: Immunofluorescence staining of normal mouse brain sections; type: binding; conditions: biotinylated miniprotein tetramerized with Cy3-labeled streptavidin
# Experimental: FIG. 12: Representative immunofluorescence staining of normal mouse brain with EDB ligand MC-FN-010 and negative control MC-FN-0115. Tissue sections (6 μm) were stained with tetramerized cystine-knot miniprotein-biotin/strepatividin-Cy3 complex and an anti-CD31 antibody to visualize vasculature. Scale bars, 100 μm.
# FIG. 13: Specific binding of MC-FN-010 to tissue sections derived from the human U-87 MG glioblastoma cell line grown as mouse xenograft tumor. Representative immunofluorescence staining of U-87 MG tumor tissues (A) and normal mouse brain (B) with trimeric MC-FN-010 and negative control MC-FN-0115. Tissue sections (6 μm) were stained with Alexa Fluor 680 conjugated trimeric cystine-knot miniproteins and an anti-CD31 antibody detected with a secondary antibody to visualize vasculature. […]
# as §1, §2
# FN-67B89 = target: T2, FN-67B89 (Homo sapiens, UniProt P02751); assay: Surface plasmon resonance spectroscopy on immobilized biotinylated FN-67B89; type: binding; conditions: for off-rates / binding affinity towards biotinylated FN-67B89: tag-free monomer; for binding affinity towards biotinylated FN-67B89: multi cycle kinetic, 1:1 Langmuir
# T2 construct: FN-67B89, amino acid G1080-E1455; made in house; host or cells: E. coli BL21 (DE3), pET-21a
# T2 sequence (P02751 1080-1546): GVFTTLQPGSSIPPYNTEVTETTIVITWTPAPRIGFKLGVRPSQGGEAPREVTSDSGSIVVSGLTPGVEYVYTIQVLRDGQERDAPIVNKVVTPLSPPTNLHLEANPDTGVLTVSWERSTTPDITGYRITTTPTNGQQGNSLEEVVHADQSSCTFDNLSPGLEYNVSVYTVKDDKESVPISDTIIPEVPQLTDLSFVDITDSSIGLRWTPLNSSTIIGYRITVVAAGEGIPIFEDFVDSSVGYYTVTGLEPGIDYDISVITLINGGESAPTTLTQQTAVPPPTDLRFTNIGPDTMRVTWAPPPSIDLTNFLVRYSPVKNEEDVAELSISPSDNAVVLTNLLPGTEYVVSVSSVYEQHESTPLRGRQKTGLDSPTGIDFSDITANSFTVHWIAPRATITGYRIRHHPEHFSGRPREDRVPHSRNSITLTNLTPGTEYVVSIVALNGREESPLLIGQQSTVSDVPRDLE
# Experimental: FIG. 10: A: Kinetic parameters of MC-FN-010 and MC-FN-016 resulting from surface plasmon resonance analysis. Biotinylated human FN-67B89 was immobilized to streptavidin sensor to perform affinity determination of MC-FN-010 and MC-FN-016 using two-fold serial dilutions starting from 4000 nM. Kinetic parameters were calculated using a 1:1 Langmuir fitting model applied to generated sensorgrams. B: Kinetic parameters of AF680-(MC-FN-010)3 and AF680-(MC-FN-016)3 resulting from surface plasmon resonance with single cycle kinetic analysis. Biotinylated human FN-67B89 was immobilized to streptavidin chip to perform binding determination of AF680-(MC-FN-010)3 and AF680-(MC-FN-016)3 using two-fold serial dilution starting from 10 nM. Kinetic parameters were calculated using a 1:1 Langmuir fitting model applied to generated sensorgrams.
# FIG. 15: SPR binding analysis of cystine-knot miniprotein variants to EDB. Kinetic parameters of EDB-specific cystine-knot miniprotein variants as measured by surface plasmon resonance analysis and calculated using a 1:1 Langmuir fitting model. Biotinylated human FN-67B89 was immobilized to a streptavidin sensor to determine affinity of DOTA-(MC-FN-016)3 using two-fold serial dilutions.
# Binding kinetics of monomeric and trimeric cystine-knot miniprotein ligands to its target protein was determined using a Biacore T-100 device (GE Healthcare Life Science) with PBS-T as running buffer. For this, the biotinylated FN-67B89 protein (200-300 μg/mL) was captured by binding to a flow cell of a SA sensor chip (GE Healthcare Life Science). To analyze monomeric ligands an immobilized target density of maximum 750 response units (RU) was applied and for trimeric variants a RU of maximum 400 was aimed for. Binding analysis of monomeric ligands was performed using a multi cycle kinetic method with concentrations ranging from 50 to 4000 nM. A cycle started with an association period of 90 sec, followed by a dissociation period of 420 sec and a final regeneration step. Kinetic measurement was conducted applying a flow rate of 20 μL/min. Trimeric variants were analyzed under the same association and dissociation conditions, but using the single cycle kinetic measurement mode in a constant flow of […]. In this case the analyte concentration was between 1.25 nM to 10 nM. Binding kinetics and steady state analysis were calculated using a global kinetic fit model (1:1 Langmuir, Biacore T-100 Evaluation Software, GE Healthcare Life Science).
# T1 sequence (P02751 32-2386 isoform P02751-1 limits assumed): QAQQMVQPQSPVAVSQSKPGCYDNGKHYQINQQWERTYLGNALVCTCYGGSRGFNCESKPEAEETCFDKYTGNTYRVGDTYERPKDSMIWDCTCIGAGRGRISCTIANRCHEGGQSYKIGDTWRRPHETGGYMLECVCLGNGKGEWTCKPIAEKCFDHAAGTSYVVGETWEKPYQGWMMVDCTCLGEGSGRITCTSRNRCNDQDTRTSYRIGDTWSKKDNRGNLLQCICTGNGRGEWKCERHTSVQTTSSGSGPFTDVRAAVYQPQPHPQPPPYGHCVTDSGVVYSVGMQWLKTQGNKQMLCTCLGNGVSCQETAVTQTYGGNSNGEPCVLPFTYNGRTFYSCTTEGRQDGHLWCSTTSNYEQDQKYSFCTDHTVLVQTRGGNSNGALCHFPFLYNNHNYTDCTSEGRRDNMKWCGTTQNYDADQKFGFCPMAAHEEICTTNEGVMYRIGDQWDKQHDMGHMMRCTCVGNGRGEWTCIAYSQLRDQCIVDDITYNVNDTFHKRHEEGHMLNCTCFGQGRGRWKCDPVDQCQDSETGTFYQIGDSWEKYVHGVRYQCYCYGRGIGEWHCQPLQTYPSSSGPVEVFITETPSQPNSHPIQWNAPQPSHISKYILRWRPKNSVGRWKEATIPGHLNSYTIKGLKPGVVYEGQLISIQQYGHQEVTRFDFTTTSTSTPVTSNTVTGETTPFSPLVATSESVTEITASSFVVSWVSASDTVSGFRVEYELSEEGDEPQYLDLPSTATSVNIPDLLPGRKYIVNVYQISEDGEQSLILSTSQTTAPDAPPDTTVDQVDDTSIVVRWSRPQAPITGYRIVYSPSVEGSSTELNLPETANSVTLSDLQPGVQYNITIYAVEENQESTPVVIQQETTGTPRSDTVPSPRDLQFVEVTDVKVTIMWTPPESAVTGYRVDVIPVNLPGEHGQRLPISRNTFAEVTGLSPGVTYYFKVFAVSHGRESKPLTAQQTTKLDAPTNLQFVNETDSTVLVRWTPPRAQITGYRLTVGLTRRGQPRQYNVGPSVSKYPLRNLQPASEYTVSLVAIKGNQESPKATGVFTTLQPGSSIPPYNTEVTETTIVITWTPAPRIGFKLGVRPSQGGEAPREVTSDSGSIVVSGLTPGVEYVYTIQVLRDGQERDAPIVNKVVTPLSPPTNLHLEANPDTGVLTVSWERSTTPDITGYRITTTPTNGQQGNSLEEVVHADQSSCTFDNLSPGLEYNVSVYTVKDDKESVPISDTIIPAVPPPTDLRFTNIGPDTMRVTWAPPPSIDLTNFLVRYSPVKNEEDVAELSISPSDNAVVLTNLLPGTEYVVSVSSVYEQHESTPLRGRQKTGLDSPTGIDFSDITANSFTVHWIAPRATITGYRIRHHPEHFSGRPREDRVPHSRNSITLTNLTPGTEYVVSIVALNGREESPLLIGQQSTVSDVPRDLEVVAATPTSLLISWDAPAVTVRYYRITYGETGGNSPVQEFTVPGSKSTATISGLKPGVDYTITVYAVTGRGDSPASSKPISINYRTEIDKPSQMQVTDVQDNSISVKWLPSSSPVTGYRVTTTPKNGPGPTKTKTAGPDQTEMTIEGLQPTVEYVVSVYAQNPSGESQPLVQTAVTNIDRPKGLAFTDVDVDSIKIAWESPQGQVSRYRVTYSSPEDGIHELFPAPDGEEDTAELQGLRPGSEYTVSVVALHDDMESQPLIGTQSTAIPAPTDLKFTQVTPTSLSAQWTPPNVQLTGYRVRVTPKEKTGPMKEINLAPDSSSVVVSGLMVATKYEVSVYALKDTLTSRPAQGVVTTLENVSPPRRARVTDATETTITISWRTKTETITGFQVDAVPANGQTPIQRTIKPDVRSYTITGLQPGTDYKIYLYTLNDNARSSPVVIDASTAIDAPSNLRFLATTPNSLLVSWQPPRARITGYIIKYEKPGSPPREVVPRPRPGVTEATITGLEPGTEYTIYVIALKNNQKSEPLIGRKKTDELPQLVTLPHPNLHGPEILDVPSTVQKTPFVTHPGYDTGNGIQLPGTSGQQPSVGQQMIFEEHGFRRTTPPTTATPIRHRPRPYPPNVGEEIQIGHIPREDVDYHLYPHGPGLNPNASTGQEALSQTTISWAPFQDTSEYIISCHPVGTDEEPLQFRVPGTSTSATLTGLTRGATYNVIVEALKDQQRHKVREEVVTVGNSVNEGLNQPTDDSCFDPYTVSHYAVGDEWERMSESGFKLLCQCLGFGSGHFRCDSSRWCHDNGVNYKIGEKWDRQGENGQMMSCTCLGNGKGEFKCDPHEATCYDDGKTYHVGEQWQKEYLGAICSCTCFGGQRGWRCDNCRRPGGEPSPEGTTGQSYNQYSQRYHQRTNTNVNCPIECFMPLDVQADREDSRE
substance,measurement,setting,value
"MCopt 1.0-1: enriched cystine-knot miniprotein clone without the R-I/V-R-(L) motif, SEQ ID NO: 10 (WTCTKKYPNTISCRRDSDCRVTCICRGNGYCG; EDB binding peptide)",off-target and control protein signals,FN-6789,high interaction
"PMCTQRANRIAACRRDSDCTGACICRGNGYCG (Control peptide) [MC-FN-0115, reference compound]",immunofluorescence staining of U-87 MG tumor sections,U-87 MG tumor tissues,no fluorescence signal at all
same,fluorescence signal on normal mouse brain section,normal mouse brain,No fluorescence signal
PMCTQRANRIRLCRRDSDCTGACICRGNGYCG [MC-FN-016],off-rates,FN-67B89,fast
same,binding affinity towards biotinylated FN-67B89,FN-67B89,one digit micromolar range
PMCTQRKNRIRLCRRDSDCTGACICRGNGYCG (cysteine pairing not given here) [MC-FN-010],off-target and control protein signals,FN-6789,medium to low
same,off-rates,FN-67B89,fast
same,binding affinity towards biotinylated FN-67B89,FN-67B89,one digit micromolar range
same,binding towards FN-67B89 target protein,"FN-67B89; tag-free proteins, 50-1000 nM, data not shown",strong binding
same,fluorescence signal on normal mouse brain section,normal mouse brain,No fluorescence signal
SVCAHYNTIRVRLCRRDSDCPGACICRGNGYCG (cysteine pairing not given here) [MCopt 2.0-2],off-target and control protein signals,FN-6789,medium to low
SVCKNVSIMRIRLCRRDSDCPGACICRGNGYCG (cysteine pairing not given here) [MCopt 2.0-1],off-target and control protein signals,FN-6789,medium to low
SVCKQANFVRIRLCRRDSDCPGACICRGNGYCG (cysteine pairing not given here) [MCopt 2.0-3],off-target and control protein signals,FN-6789,medium to low
same,background signals / unspecific binding towards FN-6789 off-target,"FN-6789; dose-dependent saturation-binding ELISA, compared with EDB containing target proteins",high degree of unspecific binding
WKCQPTNGYRIRCRRDSDCPGDCICRGNGYCG (cysteine pairing not given here) [MCopt 1.0-2],off-target and control protein signals,FN-6789,medium to low
